Details: in water

solubility (mole fraction) (278.15 K) | solubility (mole fraction) (283.15 K) | solubility (mole fraction) (288.15 K) | solubility (mole fraction) (293.15 K) | solubility (mole fraction) (298.15 K) | solubility (mole fraction) (303.15 K) | solubility (mole fraction) (308.15 K) | solubility (mole fraction) (313.15 K) | solubility (mole fraction) (318.65 K) | solubility (mole fraction) (323.15 K) | solubility (mole fraction) (328.15 K) | solubility (mole fraction) (333.15 K) | solubility (mole fraction) (338.15 K) | SMILES
0.0673 | 0.0779 | 0.0869 | 0.0969 | 0.111 | 0.124 | 0.142 | 0.154 | 0.174 | 0.184 | 0.199 | 0.218 | 0.232 | O=C(O)/C=C\C(=O)O
0.112 | 0.121 | 0.132 | 0.145 | 0.158 | 0.168 | 0.181 | 0.198 | 0.209 | 0.231 | 0.248 | 0.269 | 0.294 | O=C(O)CC(O)C(=O)O (stereo unspecified)
